According to the supplement of paper PMC3974653:
Structures can show the parent of a compound that is named as a salt.

The molecules below were run on MTT (mouse pheochromocytoma) (assay: IC50 of cell viability (ATP content)). Conditions: (24 or 48 h).
Method in brief: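 Cells of the MTT mouse pheochromocytoma line, 5 µl per well at 200,000 cells/ml, were grown overnight at 37°C, 5% CO2 in white 1536-well plates with DMEM, 5% FBS and 1% horse serum. Pintool transfer then delivered 23 nl of library compound in DMSO, giving 8 final concentrations from 0.5 nM to 46 µM, for an exposure of 24 or 48 hrs. Luminescence from CellTiter-Glo was read after 15 minutes and referenced to positive-control wells (100%) and DMSO wells (0%). IC50 was calculated with a four-parameter logistic fit.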

SMILES	IC50 of cell viability [µM]
N[C@H](CC(=O)O)C(=O)O [D-ASPARTIC ACID]	> 46
OCC(O)CO [GLYCERIN]	> 46
NCCO/C=C/C(N)C(=O)O (stereo unspecified)	> 46
O=CCCCC=O [Glutaraldehyde (Glutaric dialdehyde)]	> 46
CC1(C)C(\C=C(/Cl)Cl)C1C(=O)OC(C#N)C2=CC=CC(OC3=CC=CC=C3)=C2 (stereo unspecified) [Cypermethrin]	> 46
CCC(=O)O[C@@H]1[C@H](C)O[C@@H](O[C@H]2[C@@H](N(C)C)[C@@H](O)[C@H](O[C@H]3[C@H](CC=O)C[C@@H](C)[C@@H](O)/C=C\C=C/C[C@@H](C)OC(=O)C[C@@H](OC(=O)CC)[C@H]3OC)O[C@H]2C)C[C@]1(C)O [Midecamycin]	> 46
O=C(Cn1ccnc1[N+](=O)[O-])NCCO [ETANIDAZOLE]	> 46
CCC(=O)Oc1ccc2c(c1)CCC1C2CC[C@]2(C)C(OC(=O)CC)CCC12 (stereo partly specified)	> 46
CC(=O)N[C@@H](CS)C(=O)O [N-acetylcysteine]	> 46
C=CC1C[N@]2CCC1CC2C(OC(=O)OCC)c1ccnc2ccc(OC)cc12 (stereo partly specified) [QUININE ETHYL CARBONATE]	> 46
C[Si](C)(C)O[Si](C)(C)C [Disiloxane, hexamethyl-]	> 46
NCCc1cc[nH]n1 [Betazole hydrochloride]	> 46
CCN(CC)CCOC(=O)C1(c2ccccc2)CCCC1 [CARAMIPHEN EDISYLATE]	> 46
CNC1(c2ccccc2Cl)CCCCC1=O (stereo unspecified) [ESKETAMINUM]	> 46
CC(=O)OCC(COC(C)=O)OC(C)=O [Triacetin]	> 46
C[C@]12CC[C@@H]3c4ccc(O)cc4C[C@@H](CCCCCCCCC[S+]([O-])CCCC(F)(F)C(F)(F)F)C3[C@@H]1CC[C@@H]2O (stereo partly specified) [Fulvestrant]	> 46
S=P(N1CC1)(N1CC1)N1CC1 [Thiotepa]	> 46
COC(=O)CC[C@H](N)C(=O)O [LEUCIGLUMERUM]	> 46
CO/N=C(/C(=O)N[C@@H]1C(=O)N2C(C(=O)O)=C(COC(N)=O)CS[C@H]12)c1ccco1 [Cefuroxime Free Acid]	> 46
COc1ccc2[nH]c([S+]([O-])Cc3ncc(C)c(OC)c3C)nc2c1 (stereo unspecified) [Omeprazole]	> 46
OCC1(CO)COC(C(Cl)(Cl)Cl)OC1 [Penthrichloral]	> 46
CC(C)(Sc1cc(C(C)(C)C)c(O)c(C(C)(C)C)c1)Sc1cc(C(C)(C)C)c(O)c(C(C)(C)C)c1 [Probucol]	> 46
C=CC[N+]1([C@H]2C[C@H]3[C@@H]4CC[C@H]5C[C@H](O)[C@@H](N6CCOCC6)C[C@]5(C)[C@H]4CC[C@]3(C)[C@H]2OC(C)=O)CCCC1 [ROCURONIUM BROMIDE]	> 46
Oc1cc(O)c(Cl)cn1 [GIMERACIL]	> 46
C[N+](C)(C)CCCCCCCCCC[N+](C)(C)C [DECAMETHONIUM]	> 46
C[C@](N)(Cc1ccc(O)c(O)c1)C(=O)O [Methyldopa sesquihydrate]	> 46
CCCCCCCCCCCCCCCC(=O)OCC(O)C1OC(=O)C(O)=C1O (stereo unspecified) [Ascorbyl palmitate]	> 46

SMILES	IC50 of cell viability [µM]
CC(=O)/N=c1/sc([S+](N)(=O)[O-])nn1C [Methazolamide]	> 46
CCCCCc1ccc(C)cc1O [AMYLMETACRESOL]	> 46
BrC1=C2N=CC=NC2=CC=C1N\C3=N\CCN3 [UK 14,304]	> 46
O=C(O)CN(CCOCCOCCN(CC(=O)O)CC(=O)O)CC(=O)O	> 46
Nc1ncnc2c1ncn2CCOCP(=O)(O)O [Adefovir]	> 46
O=C/C=C/c1ccccc1 [CINNAMALDEHYDE]	> 46
OCCN1CCN(CCCN2C3=C(C=CC=C3)\C=C/C4=C2C=CC=C4)CC1 [Opipramol HCl]	> 46
COc1ccc(OC)c(C[C@H](C)N)c1 [(+)-2,5-Dimethoxyamphetamine]	> 46
NC(=S)N/N=C/c1cccnc1 [Nicothiazone]	> 46
CCC[C@@H]1C[C@@H](C(=O)N[C@@H]([C@H]2O[C@H](SC)[C@H](O)[C@@H](O)[C@H]2O)[C@@H](C)O)N(C)C1 [Lincomycin hydrochloride]	> 46
CC(C)(S)C(=O)N[C@H](CS)C(=O)O [Bucillamine]	> 46
CCC1\C(=N/N=C(C2=CC(=C(OC)C=C2)OC)\C3=C1C=C(OC)C(=C3)OC)C (stereo unspecified) [TOFISOPAM]	> 46
Cc1c(C)n(CCN(C)C)c2ccc(C(=O)OCCN(C)C)cc12 [AMINDOCATUM]	> 46
CC(=O)O[C@@H](C)C(=O)OCC[N+](C)(C)C.CC(=O)O[C@@H](C)C(=O)OCC[N+](C)(C)C.O=S(=O)([O-])c1cccc2c(S(=O)(=O)[O-])cccc12 [Aclatonium Napadisilate]	> 46
CC(C)=O [Acetone]	> 46
CCCc1c(OCCCCc2nnn[nH]2)ccc(C(C)=O)c1O	> 46
Cc1ncc(COP(=O)(O)O)c(C=O)c1O [PYRIDOXAL PHOSPHATE]	> 46
CCCC(CCC)C(=O)OC1C[C@H]2CC[C@@H](C1)[N+]2(C)C (stereo partly specified) [Anisotropine methyl bromide]	> 46
COc1ccnc(C[S+]([O-])c2nc3cc(OC(F)F)ccc3[nH]2)c1OC (stereo unspecified) [PANTOPRAZOLE]	> 46
Clc1ccc(Cl)cc1 [PARADICHLOROBENZENE]	> 46
COCC1=C(C(=O)OC(C)OC(=O)OC(C)C)N2C(=O)[C@@H](NC(=O)/C(=N/OC)c3csc(N)n3)[C@H]2SC1 (stereo partly specified) [CEFPODOXIME PROXETIL]	> 46
C=CC1=C(C)c2cc3[nH]c(cc4nc(cc5[nH]c(cc1n2)c(C)c5CCC(=O)[O-])C(CCC(=O)[O-])=C4C)c(C)c3C=C [PROTOPORPHYRIN DISODIUM]	> 46
O=c1[nH]c(=O)n(C2CCCO2)cc1F (stereo unspecified) [TEGAFUR]	> 46
COc1cc2c3cc1Oc1cc(ccc1O)C[C@@H]1c4c(cc(OC)c(O)c4Oc4ccc(cc4)C[C@@H]3N(C)CC2)CC[N+]1(C)C [(+)-TUBOCURARINE]	> 46
CC[C@H](c1ccccc1)c1noc(CCN(CC)CC)n1 [Proxazole citrate]	> 46
COC/1=N/N(CS[P](=S)(OC)OC)C(=O)S1 [Methidathion]	> 46

Continued, values first:

IC50 of cell viability [µM]	SMILES
> 46	CN1C(=O)C[C@H](c2ccccc2)C1=O [Phensuximide]
> 46	Cc1cc(C(C)(C)CC(C)(C)C)ccc1OCCOCC[N+](C)(C)Cc1ccccc1 [Methylbenzethonium chloride]
> 46	COc1ccccc1OC[C@H](O)CO [Guaifenesin]
> 46	CC(CN(C)C)CN1c2ccccc2[S+](=O)([O-])c2ccccc21 (stereo unspecified) [OXOMEMAZINE HCl]
> 46	CN1CCN([C@@H](c2ccccc2)c2ccc(Cl)cc2)CC1 [(1-[(4-Chlorophenyl)phenyl-methyl]-4-methylpiperazine)]
> 46	Cc1nccn1CC1CCc2c(c3ccccc3n2C)C1=O (stereo unspecified) [Ondansetron]
> 46	CC[N+](C)(C)c1cccc(O)c1 [Edrophonium chloride]
> 46	O=C(O)COc1ccc(CCN[S+](=O)([O-])c2ccccc2)s1 [LINOTROBANUM]
> 46	CN1CC(=O)\N=C1\NC(=O)NC2=CC(=CC=C2)Cl [Fenobam]
> 46	CC(C)/N=c1\cc2n(-c3ccc(Cl)cc3)c3ccccc3nc-2cc1Nc1ccc(Cl)cc1 [Clofazimine]
> 46	COC(=O)c1ccccc1O [Methyl salicylate]
> 46	O=C1/C(=C2\Nc3ccc([S+](=O)([O-])O)cc3C2=O)Nc2ccc([S+](=O)([O-])O)cc21 [Indigo carmine]
> 46	C[C@@H](C(=O)O)c1cccc(C(=O)c2ccccc2)c1 [Ketoprofen]
> 46	O=C1CCC(c2ccccc2)(C2CCN(Cc3ccccc3)CC2)C(=O)N1 (stereo unspecified) [Benzetimidum]
> 46	Cc1c(C(C)C)c(=O)n(-c2ccccc2)n1C [ISOPROPYLANTIPYRINE]
> 46	CC1=C(C(=O)N[C@H]2[C@@H]3SC(C)(C)[C@H]([N@@]3C2=O)C(O)=O)C(=NO1)C4=C(Cl)C=CC=C4F [Floxacillin]
> 46	O=C(O)c1cc(-c2ccc(F)cc2F)ccc1O [Diflunisal]
> 46	Cc1cc2c(OCC(CNC(C)(C)C)OC(=O)c3ccccc3)cccc2[nH]1 (stereo unspecified) [BOPINDOLOL]
> 46	Cc1ccc(Cl)c(Nc2ccccc2C(=O)[O-])c1Cl.O.[Na+] [Meclofenamic acid sodium salt monohydrate]
> 46	COc1ccccc1OCCNCC(O)COc1cccc2[nH]c3ccccc3c12.O=C(O)C(O)C(O)C(=O)O (stereo unspecified) [CARVEDILOL TARTRATE]
> 46	CCCCCCCCOc1ccccc1C(=O)Nc1ccc(C(=O)OCC[N+](C)(CC)CC)cc1 [OCTYLONIUM BROMIDE]
> 46	CN(C)[C@H]\1[C@@H]2C[C@@H]\3[C@@H](O)C4=C(Cl)C=CC(=C4C(=O)C3=C(\O)[C@@]2(O)C(=O)\C(=C1O)C(N)=O)O [Demeclocycline hydrochloride]
> 46	O=C1CN(/N=C/c2ccc(-c3ccc([N+](=O)[O-])cc3)o2)C(=O)N1 [DANTROLENE]
